The record followed here is PubChem BioAssay (NCI).

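Compound exposure: 48 hours, 5 concentrations, 96-well plates. Abbreviation: GI50, concentration required for 50% inhibition of growth. TGI denotes the concentration required for complete inhibition of growth.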

Some test systems named below: MCF7 breast; OVCAR-3 ovarian; SF-295 CNS; SK-MEL-2 melanoma; SNB-75 CNS; SR leukemia; U251 CNS; UO-31 renal.
Holding throughout (experiment): NCI anticancer screen, dose series, 48 h

For `COC(=O)/C=C/c1cn(C(C)=O)c2ccc(Br)cc12`, the GI50 in the experiment on MCF7 breast is 15.7 µM; in the experiment with OVCAR-3 ovarian it was 23.9 µM; in the experiment with SF-295 CNS, 16.1 µM; in the experiment on SK-MEL-2 melanoma, 29.5 µM; in the experiment with SNB-75 CNS, 16.1 µM; in the experiment with SR leukemia, 32.5 µM. The GI50 in the experiment on U251 CNS was 28.2 µM; in the experiment on UO-31 renal it was 8.73 µM. The TGI was over 100 µM with MCF7 breast; over 100 µM in the experiment on OVCAR-3 ovarian; 40.1 µM in the experiment with SF-295 CNS; over 100 µM in the experiment with SK-MEL-2 melanoma; 55.2 µM in the experiment with SNB-75 CNS; over 100 µM in the experiment on SR leukemia. The TGI is over 100 µM in the experiment with U251 CNS and 48.5 µM in the experiment with UO-31 renal.

Take `COC(=O)[C@H](Cc1ccc(O)cc1)NC(=O)[C@@H](OC)[C@@H]1Cc2cc3cc(OC4CC(OC5CC(O)C(O)C(C)O5)C(O)C(C)O4)c(C)c(O)c3c(O)c2C(=O)[C@H]1OC1CC(OC2CC(OC3CC(C)(O)C(O)C(C)O3)C(O)C(C)O2)C(O)C(C)O1` (stereo not given in full): the GI50 in the experiment on MCF7 breast is 0.0119 µM; with OVCAR-3 ovarian, 0.155 µM; with SF-295 CNS, 0.132 µM; in the experiment with SK-MEL-2 melanoma, 0.1 µM; with SNB-75 CNS it was 0.0773 µM; with SR leukemia, 0.0163 µM. Besides, the GI50 with U251 CNS was 0.113 µM; with UO-31 renal, 0.914 µM. The TGI was over 25 µM with MCF7 breast; over 25 µM in the experiment with OVCAR-3 ovarian; over 25 µM with SF-295 CNS; 0.748 µM in the experiment with SK-MEL-2 melanoma; 1.08 µM in the experiment on SNB-75 CNS; over 25 µM in the experiment with SR leukemia. For the same compound, the TGI in the experiment on U251 CNS and with UO-31 renal was over 25 µM in each case.

Regarding `O=c1c2ccccc2c2ccccc2c(=O)n1Cc1ccc2c(c1)OCO2`, the TGI with MCF7 breast is over 100 µM; with OVCAR-3 ovarian, over 100 µM; with SF-295 CNS, over 100 µM; with SK-MEL-2 melanoma, over 80.2 µM; with SNB-75 CNS it was over 93.6 µM; with SR leukemia, 84.5 µM. Also, the TGI with U251 CNS and in the experiment with UO-31 renal was over 100 µM throughout.

With `Cc1ncsc1-c1ccc(CNC(=O)[C@@H]2C[C@@H](O)CN2C(=O)[C@@H](NC(=O)C2(C#N)CC2)C(C)(C)C)cc1`, the GI50 with MCF7 breast is over 100 µM; in the experiment on OVCAR-3 ovarian, over 100 µM; with SF-295 CNS, over 100 µM; with SK-MEL-2 melanoma, over 100 µM; with SNB-75 CNS, 33.7 µM; in the experiment on SR leukemia, 55.4 µM. Also, the GI50 in the experiment with U251 CNS and in the experiment on UO-31 renal was over 100 µM throughout. Moreover, the TGI in the experiment with MCF7 breast, with OVCAR-3 ovarian, in the experiment with SF-295 CNS, with SK-MEL-2 melanoma, with SNB-75 CNS and in the experiment on SR leukemia was over 100 µM throughout. In addition, the TGI in the experiment with U251 CNS and in the experiment on UO-31 renal was over 100 µM each time.

In the case of `O=C(Nc1nc2ccc(F)cc2s1)c1cccnc1Nc1ccc(Cl)cc1`, the GI50 is 2.32 µM in the experiment with MCF7 breast; 2.11 µM in the experiment with OVCAR-3 ovarian; 1.98 µM in the experiment with SF-295 CNS; 2.11 µM in the experiment with SK-MEL-2 melanoma; 2.36 µM in the experiment with SNB-75 CNS; 2.28 µM in the experiment with SR leukemia. In addition, the GI50 in the experiment on U251 CNS was 2.88 µM; in the experiment with UO-31 renal, 2.36 µM. Also, the TGI in the experiment on MCF7 breast is over 100 µM; with OVCAR-3 ovarian it was 9.57 µM; in the experiment on SF-295 CNS, 7.83 µM; in the experiment with SK-MEL-2 melanoma it was 6.45 µM; with SNB-75 CNS, 16.1 µM; in the experiment on SR leukemia it was 9.31 µM. Moreover, the TGI in the experiment with U251 CNS was over 100 µM; in the experiment on UO-31 renal it was over 21.5 µM.

Take `O=C(NCc1ccco1)c1ccc(NC2=C(Cl)C(=O)N(Cc3ccccc3)C2=O)cc1`: the GI50 in the experiment on MCF7 breast was 3.91 µM; in the experiment on OVCAR-3 ovarian, 16.7 µM; with SF-295 CNS, 20.8 µM; in the experiment with SK-MEL-2 melanoma, 23.8 µM; in the experiment on SNB-75 CNS, 41.9 µM; with SR leukemia it was 2.21 µM. Also, the GI50 was 18.3 µM in the experiment with U251 CNS and 22.2 µM in the experiment with UO-31 renal. In addition, the TGI with MCF7 breast was 23.8 µM; in the experiment with OVCAR-3 ovarian, 31.3 µM; with SF-295 CNS it was 55.1 µM; in the experiment on SK-MEL-2 melanoma, 55.8 µM; in the experiment on SNB-75 CNS, over 100 µM; with SR leukemia, 7.14 µM. Also, the TGI is 44.9 µM with U251 CNS and 57.7 µM in the experiment with UO-31 renal.

For `O=C(NN=C1CCCCC1)c1[nH]c2ccc(F)cc2c1-c1ccccc1`, the GI50 was 26.8 µM with MCF7 breast; 21.8 µM in the experiment with OVCAR-3 ovarian; 33.6 µM with SF-295 CNS; over 100 µM with SK-MEL-2 melanoma; 19.6 µM with SNB-75 CNS; 12.9 µM with SR leukemia. The results for the GI50 in the experiment with U251 CNS and in the experiment with UO-31 renal were 17.8 µM and 42.6 µM, respectively. Moreover, the TGI in the experiment on MCF7 breast was 80.4 µM; with OVCAR-3 ovarian, over 100 µM; in the experiment on SF-295 CNS it was over 100 µM; in the experiment with SK-MEL-2 melanoma, over 100 µM; in the experiment on SNB-75 CNS it was 58.1 µM; in the experiment on SR leukemia, 41.9 µM. For the same compound, the TGI is 37.7 µM with U251 CNS and over 100 µM in the experiment with UO-31 renal.

Take `CC1(C)CCC(C)(C)c2c1ccc(O)c2Cc1c(O)ccc2c1C(C)(C)CCC2(C)C`: the TGI was 3.83 µM in the experiment with MCF7 breast; 4.32 µM in the experiment with OVCAR-3 ovarian; 4.99 µM with SF-295 CNS; 3.19 µM in the experiment with SK-MEL-2 melanoma; 5.33 µM with SNB-75 CNS; 6.8 µM in the experiment with SR leukemia. The TGI came to 3.18 µM with U251 CNS and 4.04 µM in the experiment on UO-31 renal.

`C/C(=C(\c1ccc(OCCN2CCCCCC2)cc1)c1ccc(OC(=O)Cc2ccccc2)cc1)c1ccc(Cl)cc1`: the GI50 in the experiment with MCF7 breast was 0.382 µM; in the experiment with OVCAR-3 ovarian, 2.75 µM; in the experiment with SF-295 CNS, 2.56 µM; in the experiment with SK-MEL-2 melanoma, 3.98 µM; with SNB-75 CNS, 2.3 µM; in the experiment on SR leukemia it was 0.556 µM. The GI50 is 2.59 µM in the experiment on U251 CNS and 2.08 µM in the experiment with UO-31 renal. Further, the TGI with MCF7 breast worked out at 3.83 µM; in the experiment with OVCAR-3 ovarian, 5.22 µM; in the experiment with SF-295 CNS, 4.97 µM; in the experiment on SK-MEL-2 melanoma, 8.72 µM; in the experiment with SNB-75 CNS, 5.33 µM; in the experiment on SR leukemia it was 6.87 µM. For the same compound, the TGI is 5.03 µM with U251 CNS and 4.21 µM with UO-31 renal.

In the case of `COc1cc(OC)c(NC(=O)c2cc3ccccc3cc2O)cc1Cl`, the GI50 in the experiment with MCF7 breast was 2.51 µM; with OVCAR-3 ovarian, 2.02 µM; with SF-295 CNS it was 2.8 µM; with SK-MEL-2 melanoma, 2.25 µM; in the experiment with SNB-75 CNS it was 1.59 µM; in the experiment with SR leukemia, 5.25 µM. The GI50 with U251 CNS is 3.22 µM; with UO-31 renal it was 1.71 µM. Further, the TGI in the experiment with MCF7 breast is 9.08 µM; in the experiment with OVCAR-3 ovarian, 4.74 µM; in the experiment with SF-295 CNS it was 9.16 µM; with SK-MEL-2 melanoma, 6.14 µM; in the experiment on SNB-75 CNS it was 15 µM; with SR leukemia it was 91.5 µM. The TGI in the experiment with U251 CNS came out at 10.5 µM; in the experiment on UO-31 renal, 8.33 µM.

For the compound `CSc1ncnc2c1ncn2C1OC(CO)C(O)OC1O` (stereo not given), the TGI with MCF7 breast is over 100 µM; in the experiment with OVCAR-3 ovarian it was 16.7 µM; with SF-295 CNS, over 71.3 µM; with SK-MEL-2 melanoma, 18.9 µM; in the experiment on SNB-75 CNS it was 31.8 µM; in the experiment on SR leukemia, over 100 µM. The TGI was determined as 30.1 µM with U251 CNS and 31.2 µM in the experiment on UO-31 renal.

Consider `CCCCCCCCCCCCOC1C(C(CC(=O)N2CCN(c3cccc(C(F)(F)F)c3)CC2)NS(=O)(=O)c2cc(Cl)cc(Cl)c2)OC2OC(C)(C)OC21` (stereo not given), for which the GI50 in the experiment on MCF7 breast, in the experiment with OVCAR-3 ovarian, in the experiment on SF-295 CNS, in the experiment with SK-MEL-2 melanoma, with SNB-75 CNS and with SR leukemia was over 100 µM each time. The GI50 with U251 CNS and with UO-31 renal was over 100 µM throughout. Besides, the TGI in the experiment with MCF7 breast, with OVCAR-3 ovarian, in the experiment with SF-295 CNS, in the experiment with SK-MEL-2 melanoma, in the experiment on SNB-75 CNS and in the experiment on SR leukemia was over 100 µM in each case. Further, the TGI in the experiment on U251 CNS and in the experiment on UO-31 renal was over 100 µM each time.

With `C=C(CN1CCN(c2cccc(C(F)(F)F)n2)CC1)c1ccc(C(=S)Nc2ccccc2N)cc1`, the GI50 in the experiment with MCF7 breast was 2.87 µM; in the experiment on OVCAR-3 ovarian, 4.34 µM; with SF-295 CNS, 3.48 µM; in the experiment with SK-MEL-2 melanoma it was 4.13 µM; with SNB-75 CNS it was 5.71 µM; in the experiment on SR leukemia it was 2.44 µM. Also, the GI50 in the experiment with U251 CNS was 3.77 µM; with UO-31 renal, 4.14 µM. Moreover, the TGI in the experiment with MCF7 breast is 14.5 µM; in the experiment on OVCAR-3 ovarian, over 100 µM; in the experiment with SF-295 CNS, over 100 µM; in the experiment with SK-MEL-2 melanoma, over 100 µM; in the experiment with SNB-75 CNS, over 100 µM; in the experiment with SR leukemia, 6.49 µM. Moreover, the TGI in the experiment on U251 CNS was 38.5 µM; in the experiment on UO-31 renal, over 100 µM.

For `CNC(=O)Oc1cc(C)c(/C=C/c2cncc(C(=O)NC)c2)c(C)c1`, the GI50 in the experiment with MCF7 breast is over 25 µM; in the experiment on OVCAR-3 ovarian, over 25 µM; in the experiment with SF-295 CNS it was over 25 µM; in the experiment with SK-MEL-2 melanoma, over 25 µM; in the experiment with SNB-75 CNS, 9.45 µM; in the experiment on SR leukemia, over 20.4 µM. The GI50 is over 25 µM in the experiment with U251 CNS and 13.3 µM in the experiment on UO-31 renal. In addition, the TGI is over 25 µM in the experiment with MCF7 breast; over 25 µM in the experiment on OVCAR-3 ovarian; over 25 µM with SF-295 CNS; over 25 µM with SK-MEL-2 melanoma; 24.6 µM with SNB-75 CNS; over 25 µM in the experiment on SR leukemia. Further, the TGI in the experiment on U251 CNS and with UO-31 renal was over 25 µM throughout.
